Measured values from US6815187B1, “Stimulation of angiogenesis via syndecan-4 cytoplasmic domain signaling pathway” (Beth Israel Deaconess Medical Center, priority 1998, dated 2004).
pIC50, pKd: −log10 of the molar value. Where no end group is shown, it is not given here. [ ]: non-standard residue; d: D form. pS = N[C@@H](COP(=O)(O)O)C(=O)O

Columns and labels:
[1] = tested on: syndecan-4 cytoplasmic tail phosphorylation in NIH 3T3 cells; assay: Syndecan-4 cytoplasmic tail phosphorylation stoichiometry (32P/35S double labeling) in NIH 3T3 cells; format: cell-based
Experimental: Confluent NIH 3T3 cells were washed twice in phosphate-free DMEM and incubated for 24 h at 37° C. in a 5% CO2 humidified atmosphere in phosphate-free DMEM supplemented with 0.5% fetal bovine serum. The cells were washed twice with methionine, phosphate, and serum-free DMEM and incubated for 6 h in the same medium, supplemented with 400 μCi/ml [^35S]methionine (New England Nuclear, Boston, Mass.). At the onset of the last 2 h of incubation, 500 μCi/ml [^32P]orthophosphoric acid (New England Nuclear) was added to the medium.
Cells were washed with PBS ([…], 10 mM Na2HPO4, 3.6 mM KCl, 1.8 mM KH2PO4, pH 7.4), dissociated by 0.05% trypsin, 0.5 mM EDTA (Life Technologies, Inc.) in PBS for 10 min at 22° C., and sedimented by 2000×g centrifugation at 4° C. for 5 min. The syndecan-4 ectoplasmic domain was immunoprecipitated from 0.5 ml of medium collected before cell trypsinization or from 0.5 ml of supernatant of the latter centrifugation. The cytoplasmic tail was immunoprecipitated from the pellet after a 30-min extraction at 4° C. in 0.5 mil of lysis buffer supplemented with 100 μM leupeptin, 2 μM pepstatin, and 10 nM okadaic acid (Sigma). Total protein concentrations in each fraction were measured by spectrophotometry at 595 nm (DU 640, Beckman, Fullerton, Calif.) of an aliquot developed for 10 min in Protein Assay Dye Reagent (Bio-Rad). Bovine serum albumin (Life Technologies Inc.) was used as standard.
The medium, trypsinization supernatant, and extracted pellet fractions were precleared by adding 30 μl of 1:1 (v/v) slurry of protein G plus/protein A-agarose beads (Calbiochem), and 10 μl of nonimmune rabbit serum (Life Technologies Inc.). After a 2-h incubation at 4° C. in rotating tubes, the beads were sedimented by 5 min, 5000×g centrifugation at 4° C. The cleared samples were supplemented with 40 μl of 1:1 (v/v) slurry of the above beads and 10 μl of rabbit polyclonal antiserum (syndecan-4 ectoplasmic domain-specific antiserum was added to the medium and trypsinization supernatant samples, and cytoplasmic tail-specific antiserum was added to the extracted pellet fraction) and incubated in rotating tubes for 18 h at 4° C. The agarose beads were collected by centrifugation as above, washed three times in heparinase digestion buffer, and resuspended in 40 μl of digestion buffer, and the GAG chains of the bead-attached ectoplasmic domains from the medium and from the trypsinization-supernatant were cleaved as above. The ectoplasmic and cytoplasmic tails were dissociated from the beads by a 10-min incubation in SDS buffer at 95° C., and the beads were sedimented by a 5 min, 13,000×g centrifugation at 4° C.
Immunoprecipitated, full-length syndecan-4 core proteins were resuspended in Laemmli sample buffer (2% SDS, 10% glycerol), 0.5% P-mercaptoethanol, 0.004% bromphenol blue, 50 mM Tris-HCl, pH 6.8) resolved by SDS-PAGE on a 10% slab gel, and transferred to a polyvinylidene fluoride (PVDF) membrane (Immobilon-P, Millipore, Bedford, Mass.) for 12 h at 25 mA in 150 mM glycine, 20 mM Tris-HCl, and 20% methanol. The ectoplasmic and cytoplasmic syndecan-4 domains were resolved on a 15% slab gel and transferred for 90 min at 20 mA in 150 mM glycine, 20 mM Tris-HCl, and 30% methanol to a low porosity PVDF membrane (Immobilon-P^SQ, Millipore). Radiolabeled bands detected by exposure to film (XAR, Kodak, Rochester, N.Y.) were excised, and their radioactivity was measured in both the ^32P and ^35S spectra by scintillation counting (LS 6000IC, Beckman, Fullerton, Calif.). In some cases, the same membranes were used for immunoblotting prior to band excision.
To determine the stoichiometry of the basal phosphorylation of syndecan-4, as well as the effect of bFGF and of other compounds on this phosphorylation, the cells were doubly labeled with [^35S]methionine and [^32P]orthophosphoric acid. […]

[2] = tested on: PKC; conditions: commercially available PKC inhibitors; cited from earlier work
[3] = biological target: T1, recombinant PKCα (Homo sapiens, UniProt P17252); assay: PKC in vitro assay, phosphorylation of PKCβ1 optimal substrate peptide by recombinant PKCα; format: biochemical; conditions: 50 μM peptide with cofactors PS, DAG and calcium
T1 construct: made in house
Experimental: Samples (30 μl) consisted of PKCβ1 optimal substrate peptide (100 μM) either with or without syndecan-4 cytoplasmic tail peptides S4c or S4c-P (both at 50 μM) in 25 mM Tris-HCl (pH 7.4), […], 1 mM DTT, 50 μM ATP, and 5 μCi [y-^32P]ATP (New England Nuclear, Boston, Mass.). In some assays the buffer was supplemented with either PIP2 (50 μM), or PS (4 μg/ml), diolein (6.2 μg/ml), and 0.2 mM CaCl2. In PKCδ assays the buffer was supplemented with PS and diolein as above, and with 0.5 mM EGTA. Upon addition of either PKCα (120 ng/ml) or PKCδ (430 ng/ml), samples were incubated at 30° C. for 10 min, and reactions were stopped by boiling in Laemmli sample buffer for 4 min. The samples were resolved on 16.5% Tris-tricine gels (BioRad Laboratories), transferred to PVDF membranes and detected as described previously in Experimental Series I.
To assess the effect of Ser^183 phosphorylation on syndecan-4-dependent PKC activation, the ability of the 28 amino acid-long syndecan-4 cytoplasmic tail peptide, S4c, and S4c-P peptides to activate recombinant PKCα was studied using the PKCβ1 optimal substrate peptide in an in-vitro assay. The results are graphically illustrated by FIG. 5.
Densitometry histograms of autoradiographic images of PKC β1 optimal substrate peptide were resolved on 16.5% Tris-tricine gels and then transferred to PVDF membranes (n=3; bars denote SD). […]

[4] = PIP2 binding assay (filtration of PIP2 micelle-bound peptide)
Experimental: PIP2 (from Sigma, dissolved at 2 mg/ml in 20 parts CHCl3, 9 parts MeOH, 1 part H2O, 0.1 part 1N HCl) was dried under N2 and sonicated for 5 min in ice-cold H2O at a final concentration of 1 mg/ml. Syndecan-4 cytoplasmic tail peptides S4c or S4c-P (100 μM) were incubated on ice for 30 min with the indicated concentrations of PIP2 in 10 mM Tris-HCl (pH 7.5), 75 mM KCl, 0.5 mM DTT, in aliquots of 100 μl. The samples were layered on 30 kDA-molecular-mass cutoff cellulose filters (Ultrafree-MC, Millipore, Bedford, Mass.), and spun at 2000 g for 1 min, following the method described in Haarer et al., Mol. Cell Biol. 13: 7864-7873 (1993). The samples (40 μl of each in Laemmli sample buffer, 2% SDS, 10% glycerol, 0.5% β-mercaptoethanol, 0.004% bromophenol blue, 50 mM Tris-HCl, pH 6.8) were resolved by SDS-PAGE on 16.5% Tris-tricine gels (BioRad Laboratories, Hercules, Calif.). Gels were stained with Coomassie Brilliant Blue G-250 (BioRad Laboratories), and images of the stained bands were digitized (DeskScan II on ScanJet 4c, Hewlett Packard) and quantitated by densitometry (ImageQuant, Molecular Dynamics, Sunnyvale, Calif.).
Both the oligomerization and PKCα activation capacities of the cytoplasmic tail of syndecan-4 have been reported as depending on the presence of PIP2 [Oh et al., J. Biol. Chem. 272: 11805-11811 (1997); Lee et al., J. Biol. Chem. 273: 13022-13029 (1998)]. It was of interest, therefore, to determine whether the phosphorylation of Ser^183 in the cytoplasmic tail of syndecan-4 affects the affinity of the tail to PIP2. To this end, the in-vitro binding between PIP2 micelles and S4c or S4c-P peptides was compared using a filtration assay. The filter retains the PIP2 micelle-bound peptide, while the unbound peptide passes through it. The results are illustrated by FIGS. 7A and 7B respectively.
Samples were resolved on 16.5% Tris-tricine gels. FIG. 7B graphically illustrates the densitometry results of the gel bands of the S4c (black bars) and S4c-P (white bars) peptides shown in FIG. 7A.

[5] = tested on: syndecan-4 expression in NIH 3T3 cells; assay: Syndecan-4 expression level by immunoblotting and densitometry of cell lysates; format: cell-based
Experimental: After blocking in PBS containing 5% nonfat milk powder for 1 h at 22° C., the membrane was incubated in the same solution supplemented with 1:3000 (v/v) dilution of either ectoplasmic or cytoplasmic tail-specific antiserum for 2 h, washed with PBS, and incubated for 1 h in 5% milk powder-PBS containing 1:2000 diluted goat anti-rabbit IgG conjugated to peroxidase (Vector Laboratories, Burlingame, Calif.). The secondary antibody was detected, after […] PBS wash, by chemiluminescence (Western Blot, Chemiluminescence Reagent Plus, New England Nuclear). Molecular weights were estimated by comparison with the electrophoretic mobility of standards (Kaleidoscope Prestained Standards, Bio-Rad). Densitometry of digitized images of immunoprobed membranes (ScanJet 4c, Hewlett Packard) was performed using ImageQuant software (Molecular Dynamics, Sunnyvale, Calif.).
If, contrary to our assumption, the incorporation efficiency of ^35S is higher than that of ^32P, the bFGF-induced decrease in syndecan-4 phosphorylation could solely result from bFGF up-regulation of syndecan-4 synthesis. […] The syndecan-4 bands, which similar to immunoprecipitated samples (FIG. 2A) ran at an approximate molecular mass of […], were detected with the antiserum specific to the ectoplasmic domain; and the amount of protein in each band was quantified by densiometry. […]

Cn1c2ccccc2c2c3c(c4c5ccccc5n(CCC#N)c4c21)CNC3=O [Gö 6976]
phosphorylation of syndecan-4 ([1]; Gö 6976 up to 100 nM in PMA (0.5 μM)-treated cells): not reduced | pIC50 [2]: 8.10

CCCCCCCCCCCCCC(=O)O[C@@H]1[C@@H](C)[C@@]2(O)[C@@H](C=C(CO)C[C@]3(O)C(=O)C(C)=C[C@@H]23)[C@@H]2C(C)(C)[C@]12OC(C)=O [PMA, Phorbol-12-myristate-13-acetate]
syndecan-4 phosphorylation relative to basal level ([1]; 0.5 μM PMA): ~3 fold | stoichiometry of the phosphorylation of syndecan-4 ([1]; 0.5 μM PMA during last 5 h of serum-free starvation, n=3): 0.81±0.33 mol Pi/mol syndecan-4

COc1ccc2c(c[n+](C)c3c4cc5c(cc4ccc23)OCO5)c1OC [chelerythrine]
phosphorylation of syndecan-4 ([1]; 6 μM chelerythrine together with 0.5 μM PMA): undetectable level | concentration above which syndecan-4 phosphorylation started to decline ([1]; applied together with 0.5 μM PMA): above 1.5 μM

Calphostin
pIC50 [2]: 7.30

S4c-P: similar syndecan-4 cytoplasmic tail peptide with a phosphorylated Ser (RMKKKDEG[pS]YDLGKKPIYKKAPTNEFYA)
effect on catalytic activity of PKCα [3]: neither the S4c, nor the S4c-P peptides had any additional effect | pKd ([4]; calculated from densitometry of filter flow-through, FIG. 7, read-out: dissociation constant (Kd) for PIP2): 3.63 | peptide passed through the filter ([4]; peptide:PIP2 molar ratio of 1:2): 50% | peptide retained by the filter ([4]; peptide:PIP2 molar ratio of 2:1, 100 μM peptide): none

basic fibrocyte growth factor [bFGF]
phosphorylation stoichiometry of syndecan-4 ([1]; 10 ng/ml bFGF during last 5 h of serum-free starvation, n=5, basal 0.31±0.12): 0.16±0.02 mol Pi/mol syndecan-4 | phosphorylation stoichiometry of syndecan-4 ([1]; 20 and 30 ng/ml bFGF, n=3): 0.12±0.06 mol Pi/mol syndecan-4 | level of syndecan-4 expression, % of control cells ([5]; 10 ng/ml bFGF): 85% | level of syndecan-4 expression, % of control cells ([5]; 30 ng/ml bFGF): 93%

calyculin
syndecan-4 phosphorylation in bFGF-treated cells ([1]; 5 nM calyculin applied with 10 ng/ml bFGF): basal level | increase of syndecan-4 phosphorylation relative to basal level ([1]; 5 nM calyculin in the absence of bFGF): more than 2.5 fold
